Measurements from EP2103614A1, “Substituted imidazopyrimidine, imidazopyrazine and imidazopyridazine derivatives as melanocortin-4 receptor modulators” (Santhera Pharmaceuticals (Schweiz) AG, priority 2008, dated 2009).
Read-outs that look alike come from different tables or passages of the source.

Experiments:
[1] = molecular target: T1, hMC-4R (Homo sapiens, UniProt P32245); assay: Functional assay (membrane based cAMP fluorescence polarization, agonistic activity); assay type: biochemical; conditions: cAMP produced compared to stimulation with NDP-alpha-MSH; read-out: % activation functional assay
T1 construct: expressed in transfected cells; host or cells: HEK293
T1 sequence (P32245 whole entry): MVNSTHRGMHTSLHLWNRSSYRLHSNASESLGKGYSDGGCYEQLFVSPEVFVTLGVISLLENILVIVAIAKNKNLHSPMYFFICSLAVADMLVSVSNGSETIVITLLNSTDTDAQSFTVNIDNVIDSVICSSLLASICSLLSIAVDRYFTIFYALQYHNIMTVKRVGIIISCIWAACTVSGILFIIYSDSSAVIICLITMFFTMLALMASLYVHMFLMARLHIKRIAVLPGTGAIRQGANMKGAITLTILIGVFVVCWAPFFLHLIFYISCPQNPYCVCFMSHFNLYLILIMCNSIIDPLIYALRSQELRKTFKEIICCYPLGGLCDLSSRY
Procedure: Agonistic activity of human melanocortin receptors is determined in a homogeneous membrane based assay.
Membrane preparations from HEK293 cells expressing the human melanocortin receptors are added. After a short preincubation period, an appropriate amount of ATP, GTP and the cAMP antibody is added and the plate is further incubated before the fluorescence labeled cAMP conjugate is dispensed. The plate is incubated for 2 h at 4°C before it is read on a fluorescence polarization microplate reader. The amount of cAMP produced as a response to a test compound is compared to the production of cAMP resulting from stimulation with NDP-alpha-MSH.

[2] = molecular target: T1, hMC-4R; assay: Membrane binding assay (fluorescence polarization, competition with fluorescence labeled NDP-alpha-MSH)
[3] = HEK293 cell membrane preparations expressing human melanocortin receptors, 5 h at room temperature, read-out: hMC-4R binding assay IC50/µM

Row | SMILES | Emax [1] [%] | IC50 [2] [µM] | IC50 [2, 3] [µM]
1 | COc1ccc(Nc2nc3ccc(C(=O)N(CCC(C)C)CCC(C)C)nn3c2CCCN)cc1 [Example 1] | 0 | 0.49 | 
2 | CC(C)CCN(CCC(C)C)C(=O)c1ccc2nc(-c3ccc4c(c3)OCCO4)c(CCCN)n2n1 [Example 2] | 0 | 1.1 | 
3 | CC(C)CCN(CCC(C)C)C(=O)c1ccc2nc(-c3ccc4c(c3)OCCO4)c(CCCN3CCCCC3)n2n1 [Example 3] | 0 |  | 0.12
4 | CC(C)CCN(CCC(C)C)C(=O)c1ccc2nc(-c3ccc(C#N)cc3)c(CCCN3CCCC3)n2n1 [Example 4] | 0 | 0.3 | 
5 | CC(C)CCN(CCC(C)C)C(=O)c1cnc2nc(-c3ccc(C#N)cc3)c(CCCN3CCCC3)n2c1 [Example 5] | 0 | 0.18 | 
6 | CC(C)CCN(CCC(C)C)C(=O)c1cnc2nc(-c3ccc(C#N)cc3)c(CCCN(C)C)n2c1 [Example 6] | 0 | 1 | 
7 | CC(C)CCN(CCC(C)C)C(=O)c1cn2c(CCCN3CCCC3)c(-c3ccc(C#N)cc3)nc2cn1 [Example 7] | 0 | 0.02 | 
8 | CC(C)CCN(CCC(C)C)C(=O)c1cn2c(CCCN(C)C)c(-c3ccc(C#N)cc3)nc2cn1 [Example 8] | 0 |  | 0.19
9 | CC(C)CCN(CCC(C)C)C(=O)c1cn2c(CCCN3CCCC3)c(-c3ccc(C(N)=O)cc3)nc2cn1 [Example 9] | 0 |  | 0.048
10 | CC(C)CCN(CCC(C)C)C(=O)c1cn2c(CCCN(C)C)c(-c3ccc(C(N)=O)cc3)nc2cn1 [Example 10] | 0 | 0.28 | 
